Here are results for six compounds from patent US9133157B2, “HIV protease inhibitors” (Merck Canada Inc., priority 2011, dated 2015).

Molecules are shown by their SMILES.

For orientation: IC50 means the point on the concentration scale where inhibition reaches its midpoint.

In this experiment the target is WT HIV-1 protease (Human immunodeficiency virus type 1 group M subtype B (isolate HXB2) (HIV-1), UniProt P04585). Briefly: Assay for inhibition of microbial expressed HIV protease (Procedure A, peptide substrate, HPLC fluorescence detection). The experiment is classed as biochemical. The note with it: WT HIV-1 protease 10 pM, substrate 400 micromolar, pH 5.5, 30 min preincubation, 1 hour at 30° C.; read-out: Enzyme inhibition IC50. Summed up: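 E. coli-expressed enzyme preincubated 30 min at room temperature with compound in 50 mM sodium acetate pH 5.5, 100 mM NaCl, 0.1% BSA. Reaction ran 1 h at 30° C with 400 micromolar Val-Ser-Gln-Asn-(betanaphthyl)Ala-Pro-Ile-Val substrate and 10 picomolar protease. After phosphoric acid quench, product was measured by C18 HPLC with fluorescence (ex 270/em 330 nm).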
For `COC(=O)N[C@H](C(=O)NCc1ccc([C@@H](CO)N(CC2CC(F)(F)C2)S(=O)(=O)c2ccc3c(c2)C(O)CC3)s1)C(c1ccccc1)c1ccccc1` (stereo partly drawn) [Example 38], the half-inhibitory concentration (IC50) was 0.0136 µM.

For the compound `COC(=O)N[C@H](C(=O)N[C@H](c1ccc([C@@H](CO)N(CCC(C)(C)C)S(=O)(=O)c2ccc(-n3ccnn3)cc2)s1)C(F)(F)F)C(c1ccccc1)c1ccccc1` [Example 113], the 50% inhibitory concentration (IC50) came to 0.0259 µM.

Consider `COC(=O)N[C@H](C(=O)N[C@H](c1ccc([C@@H](CO)N(C(C)C)S(=O)(=O)c2ccc(N)c(F)c2)s1)C(F)(F)F)C(c1ccccc1)c1ccccc1` [Example 80, N-[(1S)-1-{5-[(1R)-1-{[(4-amino-3-fluorophenyl)sulfonyl](propan-2-yl)amino}-2-hydroxyethyl]thiophen-2-yl}-2,2,2-trifluoroethyl]-Nα-(methoxycarbonyl)-β-phenyl-L-phenylalaninamide], for which the IC50 came out at 0.0305 µM.

`CC(C)CN(C(CO)c1ccc(CNC(=O)C(NC(=O)c2ccccc2)C(c2ccccc2)c2cccc3ncccc23)s1)S(=O)(=O)c1ccc2ncsc2c1` (stereo not drawn) [Example 133, N-[1-[[5-[1-(1,3-benzothiazol-6-ylsulfonyl(isobutyl)amino)-2-hydroxy-ethyl]-2-thienyl]methylcarbamoyl]-2-phenyl-2-(5-quinolyl)ethyl]benzamide]: the IC50 is 0.00476 µM.

As to `CC(C)CN(C(CO)c1ccc(CNC(=O)C(NC(=O)c2ccccc2)C(c2ccccc2)c2c[nH]c3ncccc23)s1)S(=O)(=O)c1ccc2ncsc2c1` (stereo not drawn) [Example 126, N-[1[[5-[1-(1,3-benzothiazol-6-ylsulfonyl(isobutyl)amino)-2-hydroxy-ethyl]-2-thienyl]methylcarbamoyl]-2-phenyl-2-(1H-pyrrolo[2,3-b]pyridin-3-yl)ethyl]benzamide], the IC50 came out at 0.004 µM.

On to `COC(=O)N[C@H](C(=O)NCc1cc(C(CO)N(CCC(C)C)S(=O)(=O)c2ccccc2)cs1)C(c1ccccc1)c1ccccc1` (stereo partly drawn) [Example 6, N-[(4-{2-hydroxy-1-[(3-methylbutyl)(phenylsulfonyl)amino]ethyl}thiophen-2-yl)methyl]-Nα-(methoxycarbonyl)-β-phenyl-L-phenylalaninamide], for which the IC50 stood at 0.0427 µM.
